Measurements: paper PMC12428754, “Testing Strategies for Metabolite-Mediated Neurotoxicity” (International Journal of Molecular Sciences, 2025)
Like-named read-outs stand apart in the source and are kept apart here.

Key:
Format in all cases: cell-based, human
LUHMES cells = experiment: MitoMet (UKN4b) neurite outgrowth assay; conditions: for IC25: read-out: BMC25 neurite outgrowth; for fold change between BMC25 values of parent and metabolite (potency ratio, parent divided by metabolite): listed under the metabolite, >1 = metabolite more potent
Protocol: Figure 1 (A) A strategy scheme to assess metabolite-mediated hazard in NAMs used for neurotoxicity or developmental neurotoxicity. Parent and metabolite compounds are tested separately in the respective assay. This strategy is applicable when there is prior knowledge of metabolite formation. A decision rule based on the relative toxicities (X) of the parent and metabolite may be applied to decide whether next-generation risk assessment (NGRA) should be applied to the metabolite. The value of X may be defined according to the problem formulation and the NAM used. (B) An assay scheme of the neurite outgrowth assay used here for exemplification: Proliferating LUHMES cells were replated one day before differentiation was initiated (day −1). After two days (day 2) in differentiation medium, the cells were replated into assay format (96-well). At this point, neurite growth was re-initiated. The cells were treated with toxicants 1 h after replating. Neurite outgrowth and viability were determined 24 h later, using automated high content imaging. (C) Comparison of neurite outgrowth of cultures treated with bromethalin and desmethyl-bromethalin one exemplary parent/metabolite pair (chemical structures shown). […] The curves are based on data from three independent experiments and were fitted using a four-parameter Hill function. Data points shown are arithmetic means of data from independent experiments ±SEM. In each independent experiment, the technical replicates were measured and averaged. A benchmark response (BMR) of 25% was used as specified in the detailed assay description, and the respective benchmark concentration (BMC25) was determined. […] (D) Microscopic images of calcein-stained LUHMES cells. Similar images are used for neurite quantification. Treatment with 40 nM of the parent (left) or metabolite (right). The scale bar in orange corresponds to 50 µm. […] It stands under panel C and to the right of panel D, and was assigned to C.
The MitoMet neurite outgrowth assay was performed as previously described. In brief, all cell culture dishes and flasks were pre-coated with 50 μg/mL poly-l-ornithine (PLO) and 1 μg/mL fibronectin. Proliferating LUHMES cells were maintained in AdvDMEM/F12 containing L-glutamine (2 mM), N2 supplement (1x), and FGF (40 ng/mL). For pre-differentiation, the cells were replated at a density of 46,000 cells/cm^2 one day prior to the induction of differentiation (defined as the day of differentiation, Day −1). Differentiation was initiated by exchanging the culture medium for AdvDMEM/F12 supplemented with L-glutamine (2 mM), N2 supplement (1x), dibutyryl-cAMP (1 mM), tetracycline (1 µg/mL), and GDNF (2 ng/mL). After two days of differentiation (Day 2), the cells were replated (100,000 cells/cm^2) into 96-well plates. The final assay medium consisted of glucose-free AdvDMEM/F12 supplemented with galactose (18 mM), L-glutamine (2 mM), and tetracycline (1 µg/mL). One hour after replating, the cells were treated with a 10× concentrated stock solution of the test compound. Neurite outgrowth and viability were determined 24 h later, using automated high content imaging.
The image acquisition and analysis were conducted according to established protocols. The cells were stained with Hoechst H-33342 (1 µg/mL) to visualise nuclei and calcein-AM (1 µM) to label viable cell structures. Fluorescent images were acquired using an automated imaging system.

[1] = test system: hiPSC-derived neural crest-like cells; experiment: cMINC (UKN2) neural crest cell migration assay; conditions: listed under the metabolite
Protocol: (§1) Figure 6 The transfer of the metabolisation module to the neural crest cell migration assay (cMINC). (A) A schematic of the cMINC (circular migration of neural crest cells) assay. The cells were seeded around a central stopper to create a cell-free circular area. Migration was initiated 24 h after seeding by removing the stopper. This is defined as the day of migration (DoM) 0. On DoM 1, the cells were exposed to toxicants. After 24 h of exposure, both cell migration and viability were quantified, using automated high-content imaging. (B) Compatibility of the metabolisation module (preincubation with 500 µg/mL S9 at 37 °C for 2 h) with the cMINC assay: The setup was as described in Figure 4 and as exemplified in Figure 5A. No compound was added (solvent control). The S9 mixture (at 500 µg/mL ± NADPH) was added to the normal cell culture medium of the cMINC assay (so that the addition was 10% of the total volume). Data are from three independent experiments. (C,D) The concentration-dependent effects on migration were evaluated for metabolite mixtures generated from bromethalin (C) or chlorfenapyr (D). […] The arrows indicate the direction of sensitivity shift between NADPH-dependent and -independent metabolite mixtures, with accompanying fold change values. The concentrations are given as nominal concentrations of the parent compound. Abbreviations: n.s., not significant. TEXT PRINTED IN THE PICTURE: (C) Bromethalin: x30 | (D) Chlorfenapyr: x15
The MINC assay was performed as previously described. Briefly, 96-well plates were prepared by inserting a central 2 mm diameter stopper (Platypus Technologies, Madison, WI, USA) into pre-coated wells with a composite poly-L-ornithine (PLO; 10 µg/mL), fibronectin (1 µg/mL), and laminin (1 µg/mL) matrix. […] After a further 24 h (DoM 2), cell migration and viability were assessed. […] High content imaging was performed, and data were analysed using the RingAssay V1 software (http://invitrotox.uni-konstanz.de/, accessed on 3 February 2025). […]

[2] = test system: hiPSC-derived neural crest-like cells; experiment: S9 metabolisation module followed by cMINC migration assay; conditions: for EC25 migration (+NADPH): metabolite mixture generated with NADPH; for EC25 migration (+NADPH) / EC25 migration (−NADPH): nominal concentration of parent; for EC25 migration (−NADPH): metabolite mixture generated without NADPH; for fold change of potency (EC25) between NADPH-independent and -dependent metabolite mixtures: potency increased with NADPH
Protocol: as §1
The MINC assay was performed as previously described. Briefly, 96-well plates were prepared by inserting a central 2 mm diameter stopper (Platypus Technologies, Madison, WI, USA) into pre-coated wells with a composite poly-L-ornithine (PLO; 10 µg/mL), fibronectin (1 µg/mL), and laminin (1 µg/mL) matrix. Cryopreserved human induced pluripotent stem cell (hiPSC)-derived neural crest-like cells were thawed and seeded at a density of 95,000 cells/cm^2 around the stopper to create a defined, cell-free circular area. The cells were cultured in N2-S medium supplemented with […] of the cytokines EGF and FGF. After 24 h, the stoppers were removed and the medium refreshed to initiate cell migration into the cell-free centre (defined as the day of migration, DoM 0). On DoM 1, the cells were exposed to test compounds by the addition of a 5× concentrated toxicant solution. After a further 24 h (DoM 2), cell migration and viability were assessed. The cells were stained with 0.5 µM calcein-AM and 1 µg/mL Hoechst 33342 (both from Sigma-Aldrich, Steinheim, Germany). High content imaging was performed, and data were analysed using the RingAssay V1 software (http://invitrotox.uni-konstanz.de/, accessed on 3 February 2025).
In the first step, matched technical replicates were averaged. […] For visualisation, GraphPad Prism 9 was used.
The supernatant was used further.

[3] = Homo sapiens, benchmark response 25%, neurite area, 24 h exposure, three independent experiments

## O=C(c1ccccc1)c1ccc(O)cc1 [4-Hydroxybenzophenone]
LUHMES cells; [3]
  IC25: 78 µM
LUHMES cells
  fold change between BMC25 values of parent and metabolite (potency ratio, parent divided by metabolite): > 6 fold
[1]
  increase in potency of metabolite compared to parent (BMC25 ratio): over three

## CN(c1c(Br)cc(Br)cc1Br)c1c([N+](=O)[O-])cc([N+](=O)[O-])cc1C(F)(F)F [Bromethalin]
LUHMES cells; Homo sapiens, 24 h
  IC25: 0.79 µM
LUHMES cells; benchmark response 25%, neurite area, 24 h exposure, three independent experiments
  IC25: 0.79 µM
[2]
  EC25 migration (+NADPH): 26 nM
  EC25 migration (−NADPH): 0.79 µM
  fold change of potency (EC25) between NADPH-independent and -dependent metabolite mixtures: about 30 fold

## CCOCn1c(-c2ccc(Cl)cc2)c(C#N)c(Br)c1C(F)(F)F [Chlorfenapyr]
LUHMES cells; [3]
  IC25: > 10 µM
[2]
  EC25 migration (+NADPH): 600 nM
  EC25 migration (−NADPH): 9 µM
  fold change of potency (EC25) between NADPH-independent and -dependent metabolite mixtures: 15 fold

## N#Cc1c(-c2ccc(Cl)cc2)[nH]c(C(F)(F)F)c1Br [Tralopyril]
LUHMES cells; [3]
  IC25: 0.35 µM
LUHMES cells
  fold change between BMC25 values of parent and metabolite (potency ratio, parent divided by metabolite): > 29 fold
[1]
  increase in potency of metabolite compared to parent (BMC25 ratio): 28 fold
